{"source": "paper PMC9653409", "about": "“Generative deep learning enables the discovery of a potent and selective RIPK1 inhibitor” (Nature Communications, 2022)", "test_in_all_cases": "Kinase inhibitory activity profiling of RI-962@10 µM (406 kinases, Eurofins)", "format_in_all_cases": "biochemical", "key": {"[1]": {"target": "panel of human kinases (kinase named in endpoint) (Homo sapiens, UniProt P53350)", "details": "10 µM; read-out: Activity (%), Plk1(h)", "procedure,_shortened": "(§1)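 Radiometric filter-binding kinase assays: enzyme preincubated 15 min with compound in 8 mM MOPS pH 7.0, 0.2 mM EDTA, 250 μM peptide substrate, 10 mM magnesium acetate, 10 μM [γ-33P]-ATP. Reaction started with Mg/ATP, run 40 min at room temperature, stopped with phosphoric acid; 33P incorporation read by scintillation counting. Other kinases by similar protocols.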"}, "[2]": {"target": "panel of human kinases (kinase named in endpoint) (Homo sapiens, UniProt P22607)", "details": "10 µM; read-out: Activity (%), FGFR3(h)", "procedure,_shortened": "as §1"}, "[3]": {"target": "panel of human kinases (kinase named in endpoint) (Homo sapiens, UniProt Q16288)", "details": "10 µM; read-out: Activity (%), TrkC(h)", "procedure,_shortened": "as §1"}, "[4]": {"target": "panel of human kinases (kinase named in endpoint) (Mus musculus, UniProt Q4JIM5)", "details": "10 µM; read-out: Activity (%), Arg(m)", "procedure,_shortened": "as §1"}, "[5]": {"target": "panel of human kinases (kinase named in endpoint) (Homo sapiens, UniProt Q8IYT8)", "sequence (Q8IYT8 whole entry)": "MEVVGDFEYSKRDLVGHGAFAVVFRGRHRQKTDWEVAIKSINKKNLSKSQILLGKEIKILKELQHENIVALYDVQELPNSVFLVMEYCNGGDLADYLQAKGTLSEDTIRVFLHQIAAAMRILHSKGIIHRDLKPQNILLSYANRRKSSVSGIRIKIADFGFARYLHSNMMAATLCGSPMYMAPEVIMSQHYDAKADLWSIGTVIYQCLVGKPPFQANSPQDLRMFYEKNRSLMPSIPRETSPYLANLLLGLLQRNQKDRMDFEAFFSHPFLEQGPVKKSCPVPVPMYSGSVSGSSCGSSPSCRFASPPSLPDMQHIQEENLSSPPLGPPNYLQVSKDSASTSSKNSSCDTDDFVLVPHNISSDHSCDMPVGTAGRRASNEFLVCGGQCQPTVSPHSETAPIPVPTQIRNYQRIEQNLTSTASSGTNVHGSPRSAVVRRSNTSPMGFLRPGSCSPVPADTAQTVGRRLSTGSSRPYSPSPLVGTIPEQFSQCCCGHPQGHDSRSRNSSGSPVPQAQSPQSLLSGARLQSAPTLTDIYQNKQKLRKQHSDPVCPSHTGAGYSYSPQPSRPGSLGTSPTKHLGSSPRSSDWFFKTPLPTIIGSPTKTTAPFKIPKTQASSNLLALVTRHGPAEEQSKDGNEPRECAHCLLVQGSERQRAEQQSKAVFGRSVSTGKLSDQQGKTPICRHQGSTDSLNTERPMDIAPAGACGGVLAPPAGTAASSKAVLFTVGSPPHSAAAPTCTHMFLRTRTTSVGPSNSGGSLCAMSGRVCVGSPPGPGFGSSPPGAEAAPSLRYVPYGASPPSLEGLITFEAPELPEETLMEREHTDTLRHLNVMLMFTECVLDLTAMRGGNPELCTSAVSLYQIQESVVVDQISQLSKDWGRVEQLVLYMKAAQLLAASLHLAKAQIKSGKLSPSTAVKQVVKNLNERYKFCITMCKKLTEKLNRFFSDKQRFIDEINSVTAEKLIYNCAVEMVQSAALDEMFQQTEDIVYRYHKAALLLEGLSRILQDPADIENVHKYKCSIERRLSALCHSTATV", "details": "10 µM; read-out: Activity (%), ULK2(h)", "procedure,_shortened": "as §1"}, "[6]": {"target": "panel of human kinases (kinase named in endpoint) (Homo sapiens, UniProt P49759)", "details": "10 µM; read-out: Activity (%), CLK1(h)", "procedure,_shortened": "as §1"}, "[7]": {"target": "panel of human kinases (kinase named in endpoint) (Homo sapiens, UniProt O75385)", "details": "10 µM; read-out: Activity (%), ULK1(h)", "procedure,_shortened": "as §1"}, "[8]": {"target": "panel of human kinases (kinase named in endpoint) (Homo sapiens, UniProt Q8WTQ7)", "details": "10 µM; read-out: Activity (%), GRK7(h)", "procedure,_shortened": "as §1"}, "[9]": {"target": "panel of human kinases (kinase named in endpoint) (Homo sapiens, UniProt P52564)", "details": "10 µM; read-out: Activity (%), MKK6(h)", "procedure,_shortened": "as §1"}, "[10]": {"target": "panel of human kinases (kinase named in endpoint) (Homo sapiens, UniProt Q6P2M8)", "details": "10 µM; read-out: Activity (%), CaMKIß(h)", "procedure,_shortened": "as §1"}, "[11]": {"target": "panel of human kinases (kinase named in endpoint) (Homo sapiens, UniProt P08631)", "sequence (P08631 whole entry)": "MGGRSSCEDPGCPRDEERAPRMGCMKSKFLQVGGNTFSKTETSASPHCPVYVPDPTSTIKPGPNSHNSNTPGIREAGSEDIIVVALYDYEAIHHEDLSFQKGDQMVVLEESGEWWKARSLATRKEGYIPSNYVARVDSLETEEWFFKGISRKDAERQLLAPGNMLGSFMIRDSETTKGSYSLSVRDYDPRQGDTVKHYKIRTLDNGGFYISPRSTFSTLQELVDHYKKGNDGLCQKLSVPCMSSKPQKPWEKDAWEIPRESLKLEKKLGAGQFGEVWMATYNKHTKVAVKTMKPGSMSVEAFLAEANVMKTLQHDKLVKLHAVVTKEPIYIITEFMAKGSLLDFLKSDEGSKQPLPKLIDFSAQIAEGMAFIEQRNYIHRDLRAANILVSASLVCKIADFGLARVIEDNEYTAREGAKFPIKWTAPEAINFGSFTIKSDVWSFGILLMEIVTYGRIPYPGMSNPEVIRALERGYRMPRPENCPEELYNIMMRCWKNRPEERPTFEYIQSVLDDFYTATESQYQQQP", "details": "10 µM", "procedure,_shortened": "as §1"}, "[12]": {"target": "panel of human kinases (kinase named in endpoint) (Homo sapiens, UniProt P00533, L861Q)", "details": "10 µM; read-out: Activity (%), EGFR(L861Q)(h)", "procedure,_shortened": "as §1"}, "[13]": {"target": "panel of human kinases (kinase named in endpoint) (Homo sapiens, UniProt O15111)", "details": "10 µM; read-out: Activity (%), IKKα(h)", "procedure,_shortened": "as §1"}, "[14]": {"target": "panel of human kinases (kinase named in endpoint) (Homo sapiens, UniProt Q02763, Y897S)", "sequence (Q02763 23-1124 Y897S)": "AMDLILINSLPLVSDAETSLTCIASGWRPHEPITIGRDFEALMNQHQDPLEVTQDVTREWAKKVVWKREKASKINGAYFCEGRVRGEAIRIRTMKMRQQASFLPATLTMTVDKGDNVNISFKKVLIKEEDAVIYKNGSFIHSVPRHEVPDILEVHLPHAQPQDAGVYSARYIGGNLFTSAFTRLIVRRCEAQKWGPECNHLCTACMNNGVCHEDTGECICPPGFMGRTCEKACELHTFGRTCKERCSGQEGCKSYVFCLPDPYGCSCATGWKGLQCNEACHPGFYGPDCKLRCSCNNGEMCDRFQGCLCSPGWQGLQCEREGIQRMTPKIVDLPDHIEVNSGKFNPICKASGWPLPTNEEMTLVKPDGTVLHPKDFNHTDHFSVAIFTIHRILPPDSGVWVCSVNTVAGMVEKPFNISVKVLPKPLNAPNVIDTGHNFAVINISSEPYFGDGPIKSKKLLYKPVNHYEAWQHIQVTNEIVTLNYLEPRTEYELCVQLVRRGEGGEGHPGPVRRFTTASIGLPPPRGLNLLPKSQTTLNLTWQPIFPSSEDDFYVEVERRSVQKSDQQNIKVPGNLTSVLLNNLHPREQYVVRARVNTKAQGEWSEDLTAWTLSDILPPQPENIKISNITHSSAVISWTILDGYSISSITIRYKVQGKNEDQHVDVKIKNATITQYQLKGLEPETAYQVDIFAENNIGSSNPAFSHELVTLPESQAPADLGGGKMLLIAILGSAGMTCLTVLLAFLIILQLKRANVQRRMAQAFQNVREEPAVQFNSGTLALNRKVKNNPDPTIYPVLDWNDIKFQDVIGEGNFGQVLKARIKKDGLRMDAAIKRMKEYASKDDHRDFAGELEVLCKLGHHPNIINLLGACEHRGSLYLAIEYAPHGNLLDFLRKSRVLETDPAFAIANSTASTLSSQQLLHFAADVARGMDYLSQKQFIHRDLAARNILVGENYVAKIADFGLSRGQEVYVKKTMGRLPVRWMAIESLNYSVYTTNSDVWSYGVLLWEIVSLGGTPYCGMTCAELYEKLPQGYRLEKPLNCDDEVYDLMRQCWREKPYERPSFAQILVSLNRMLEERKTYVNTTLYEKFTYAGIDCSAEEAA", "details": "10 µM; read-out: Activity (%), Tie2(Y897S)(h)", "procedure,_shortened": "as §1"}, "[15]": {"target": "panel of human kinases (kinase named in endpoint) (Homo sapiens, UniProt Q9NYV4)", "sequence (Q9NYV4 whole entry)": "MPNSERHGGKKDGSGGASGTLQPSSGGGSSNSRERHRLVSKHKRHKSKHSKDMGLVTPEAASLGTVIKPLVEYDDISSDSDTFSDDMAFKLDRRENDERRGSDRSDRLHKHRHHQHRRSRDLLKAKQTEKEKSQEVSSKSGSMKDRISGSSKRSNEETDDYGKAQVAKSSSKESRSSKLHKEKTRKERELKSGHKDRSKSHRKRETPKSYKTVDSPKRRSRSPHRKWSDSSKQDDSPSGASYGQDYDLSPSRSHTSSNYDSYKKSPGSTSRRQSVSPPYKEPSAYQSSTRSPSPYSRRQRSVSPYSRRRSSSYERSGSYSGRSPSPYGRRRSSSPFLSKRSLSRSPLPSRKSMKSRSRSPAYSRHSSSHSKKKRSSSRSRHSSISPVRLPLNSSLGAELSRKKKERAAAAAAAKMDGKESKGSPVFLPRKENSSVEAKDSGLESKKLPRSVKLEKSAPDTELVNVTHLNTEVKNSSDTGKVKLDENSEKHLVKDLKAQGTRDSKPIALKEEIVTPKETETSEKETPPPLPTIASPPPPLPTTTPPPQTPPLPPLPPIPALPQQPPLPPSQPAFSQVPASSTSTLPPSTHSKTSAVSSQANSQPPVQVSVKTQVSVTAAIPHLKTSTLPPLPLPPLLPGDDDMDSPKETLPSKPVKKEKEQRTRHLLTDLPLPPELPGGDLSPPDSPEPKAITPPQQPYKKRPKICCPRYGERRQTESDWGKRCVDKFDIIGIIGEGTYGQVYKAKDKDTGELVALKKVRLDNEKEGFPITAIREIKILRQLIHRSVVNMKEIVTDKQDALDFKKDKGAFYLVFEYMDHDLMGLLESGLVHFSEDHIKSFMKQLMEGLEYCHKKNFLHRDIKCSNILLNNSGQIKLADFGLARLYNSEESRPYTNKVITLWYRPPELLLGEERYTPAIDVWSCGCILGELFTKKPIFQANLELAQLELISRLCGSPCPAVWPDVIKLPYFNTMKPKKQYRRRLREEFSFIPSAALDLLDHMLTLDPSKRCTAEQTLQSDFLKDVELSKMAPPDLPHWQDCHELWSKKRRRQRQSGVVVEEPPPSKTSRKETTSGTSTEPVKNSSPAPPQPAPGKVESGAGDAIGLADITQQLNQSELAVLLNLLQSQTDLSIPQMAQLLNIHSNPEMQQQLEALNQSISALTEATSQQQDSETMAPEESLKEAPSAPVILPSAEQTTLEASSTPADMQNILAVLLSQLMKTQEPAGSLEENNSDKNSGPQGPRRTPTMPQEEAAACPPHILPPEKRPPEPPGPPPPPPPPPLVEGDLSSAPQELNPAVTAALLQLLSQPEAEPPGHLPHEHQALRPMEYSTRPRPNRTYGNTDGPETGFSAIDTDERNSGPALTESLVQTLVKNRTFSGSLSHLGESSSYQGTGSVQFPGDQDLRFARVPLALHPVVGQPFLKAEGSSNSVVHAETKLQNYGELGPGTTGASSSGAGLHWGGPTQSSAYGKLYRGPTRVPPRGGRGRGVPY", "details": "10 µM; read-out: Activity (%), CDK12/cyclinK(h)", "procedure,_shortened": "as §1"}, "[16]": {"target": "panel of human kinases (kinase named in endpoint) (Homo sapiens, UniProt O00506)", "details": "10 µM; read-out: Activity (%), STK25(h)", "procedure,_shortened": "as §1"}, "[17]": {"target": "panel of human kinases (kinase named in endpoint) (Homo sapiens, UniProt Q96SB4)", "details": "10 µM; read-out: Activity (%), SRPK1(h)", "procedure,_shortened": "as §1"}, "[18]": {"target": "panel of human kinases (kinase named in endpoint) (Homo sapiens, UniProt Q02763)", "sequence (Q02763 23-1124)": "as the sequence (Q02763 23-1124 Y897S) above, with S875Y counted along it", "details": "10 µM; read-out: Activity (%), Tie2 (h)", "procedure,_shortened": "as §1"}, "[19]": {"target": "panel of human kinases (kinase named in endpoint) (Homo sapiens, UniProt Q9H422)", "details": "10 µM; read-out: Activity (%), HIPK3(h)", "procedure,_shortened": "as §1"}, "[20]": {"target": "panel of human kinases (kinase named in endpoint) (Homo sapiens, UniProt P19525)", "details": "10 µM; read-out: Activity (%), PKR(h)", "procedure,_shortened": "as §1"}, "[21]": {"target": "panel of human kinases (kinase named in endpoint) (Homo sapiens, UniProt P49841)", "sequence (P49841 whole entry)": "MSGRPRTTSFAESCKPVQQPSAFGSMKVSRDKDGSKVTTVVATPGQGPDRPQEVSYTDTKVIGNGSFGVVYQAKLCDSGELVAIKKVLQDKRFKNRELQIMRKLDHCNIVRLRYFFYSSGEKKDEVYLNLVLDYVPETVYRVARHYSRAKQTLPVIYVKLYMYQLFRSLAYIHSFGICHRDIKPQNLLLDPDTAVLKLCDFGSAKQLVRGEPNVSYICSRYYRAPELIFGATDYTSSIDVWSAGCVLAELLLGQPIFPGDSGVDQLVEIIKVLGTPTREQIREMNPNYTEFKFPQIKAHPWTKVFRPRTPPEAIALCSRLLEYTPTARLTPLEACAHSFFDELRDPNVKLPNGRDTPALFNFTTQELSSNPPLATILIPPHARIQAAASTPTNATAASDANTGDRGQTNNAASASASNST", "details": "10 µM; read-out: Activity (%), GSK3β(h)", "procedure,_shortened": "as §1"}, "[22]": {"target": "panel of human kinases (kinase named in endpoint) (Homo sapiens, UniProt P10721, V560G)", "details": "10 µM; read-out: Activity (%), cKit(V560G)(h)", "procedure,_shortened": "as §1"}, "[23]": {"target": "panel of human kinases (kinase named in endpoint) (Homo sapiens, UniProt P19784)", "details": "10 µM; read-out: Activity (%), CK2α2(h)", "procedure,_shortened": "as §1"}, "[24]": {"target": "panel of human kinases (kinase named in endpoint) (Homo sapiens, UniProt P48730)", "sequence (P48730 whole entry)": "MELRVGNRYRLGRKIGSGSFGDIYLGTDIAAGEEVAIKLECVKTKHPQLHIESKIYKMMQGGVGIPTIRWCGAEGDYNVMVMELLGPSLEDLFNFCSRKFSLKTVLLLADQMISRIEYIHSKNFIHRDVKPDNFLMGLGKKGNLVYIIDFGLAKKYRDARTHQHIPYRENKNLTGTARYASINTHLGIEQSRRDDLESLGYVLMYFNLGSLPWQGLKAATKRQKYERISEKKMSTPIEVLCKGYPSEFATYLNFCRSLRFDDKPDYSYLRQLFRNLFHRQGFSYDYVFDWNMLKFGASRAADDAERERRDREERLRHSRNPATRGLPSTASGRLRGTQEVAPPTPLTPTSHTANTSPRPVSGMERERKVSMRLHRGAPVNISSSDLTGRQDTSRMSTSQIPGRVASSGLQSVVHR", "details": "10 µM; read-out: Activity (%), CK1δ(h)", "procedure,_shortened": "as §1"}, "[25]": {"target": "panel of human kinases (kinase named in endpoint) (Homo sapiens, UniProt P11309)", "details": "10 µM; read-out: Activity (%), Pim-1(h)", "procedure,_shortened": "as §1"}}, "note": "Where two headings read alike, the source gives them in different places."}
{"smiles": "CC(C)C(=O)Nc1nc2cc(-c3ccc4c(c3)c(C(=O)NC(C)c3ccccc3)cn4C)ccn2n1", "note": "(centres unmarked) [RI-962]", "values": [{"measurement": "activity at 10 µM", "setting": "[1]", "value": 122, "unit": "%"}, {"measurement": "activity at 10 µM", "setting": "[2]", "value": 72, "unit": "%"}, {"measurement": "activity at 10 µM", "setting": "[3]", "value": 56, "unit": "%"}, {"measurement": "activity at 10 µM", "setting": "[4]", "value": 90, "unit": "%"}, {"measurement": "activity at 10 µM", "setting": "[5]", "value": 89, "unit": "%"}, {"measurement": "activity at 10 µM", "setting": "[6]", "value": 109, "unit": "%"}, {"measurement": "activity at 10 µM", "setting": "[7]", "value": 69, "unit": "%"}, {"measurement": "activity at 10 µM", "setting": "[8]", "value": 60, "unit": "%"}, {"measurement": "activity at 10 µM", "setting": "[9]", "value": 97, "unit": "%"}, {"measurement": "activity at 10 µM", "setting": "[10]", "value": 100, "unit": "%"}, {"measurement": "activity at 10 µM", "setting": "[11]; read-out: Activity (%), Hck(h)", "value": 93, "unit": "%"}, {"measurement": "activity at 10 µM", "setting": "[11]; read-out: Activity (%), Hck(h) activated", "value": 97, "unit": "%"}, {"measurement": "activity at 10 µM", "setting": "[12]", "value": 82, "unit": "%"}, {"measurement": "activity at 10 µM", "setting": "[13]", "value": 101, "unit": "%"}, {"measurement": "activity at 10 µM", "setting": "[14]", "value": 69, "unit": "%"}, {"measurement": "activity at 10 µM", "setting": "[15]", "value": 117, "unit": "%"}, {"measurement": "activity at 10 µM", "setting": "[16]", "value": 81, "unit": "%"}, {"measurement": "activity at 10 µM", "setting": "[17]", "value": 102, "unit": "%"}, {"measurement": "activity at 10 µM", "setting": "[18]", "value": 90, "unit": "%"}, {"measurement": "activity at 10 µM", "setting": "[19]", "value": 89, "unit": "%"}, {"measurement": "activity at 10 µM", "setting": "[20]", "value": 97, "unit": "%"}, {"measurement": "activity at 10 µM", "setting": "[21]", "value": 111, "unit": "%"}, {"measurement": "activity at 10 µM", "setting": "[22]", "value": 95, "unit": "%"}, {"measurement": "activity at 10 µM", "setting": "[23]", "value": 85, "unit": "%"}, {"measurement": "activity at 10 µM", "setting": "[24]", "value": 108, "unit": "%"}, {"measurement": "activity at 10 µM", "setting": "[25]", "value": 101, "unit": "%"}]}
